According to ChEMBL document CHEMBL1122254, “Sulfonyliminoimidazolidines. A new class of oral hypoglycemic agents. 1. 1-[[p-[2-(acylamino)ethyl]phenyl]sulfonyl]-2-iminoimidazolidines” (1983):

Columns and labels:
Assay type in all cases: functional
[1] = test system: Rattus norvegicus; assay: Hypoglycemic activity by lowering blood glucose in normal rats by 20% after oral administration.
[2] = test system: Rattus norvegicus; assay: Hypoglycemic activity by lowering blood glucose in normal rats by 50% after oral administration.
[3] = test system: Rattus norvegicus; assay: Hypoglycemic activity by lowering blood glucose in streptozotocin-diabetic rats by 20% after oral administration.
[4] = test system: Rattus norvegicus; assay: Compound evaluated for hypoglycemic activity by lowering blood glucose in normal rats by 50% after oral administration (highest dose tested)

Row | SMILES | ED20 [1] [mmol/kg] | ED50 [2] [µmol/kg] | ED20 [3] [mmol/kg] | ED50 [4] [µmol/kg]
1 | C=C(C)C(=O)NCCc1ccc(S(=O)(=O)N2CCN(C3CCCCC3)C2=N)cc1 | 0.024 | 220 |  | 
2 | CCOCC(=O)NCCc1ccc(S(=O)(=O)N2CCN(C3CCCCC3)C2=N)cc1 | 0.044 | 150 |  | 
3 | C[S+]([O-])CCC(=O)NCCc1ccc(S(=O)(=O)N2CCN(C3CCCCC3)C2=N)cc1 (stereo unspecified) | 0.056 | 200 | 0.86 | 
4 | CSCCC(=O)NCCc1ccc(S(=O)(=O)N2CCN(C3CCCCC3)C2=N)cc1 | 0.053 | 200 |  | 
5 | N=C1N(C2CCCCC2)CCN1S(=O)(=O)c1ccc(CCNC(=S)NC2CCCCC2)cc1 | 0.16 |  |  | > 820
6 | COCCC(=O)NCCc1ccc(S(=O)(=O)N2CCN(C3CCCCC3)C2=N)cc1 | 0.033 | 220 |  | 
7 | CN(C)CC(=O)NCCc1ccc(S(=O)(=O)N2CCN(C3CCCCC3)C2=N)cc1 | 0.057 | 180 |  | 
8 | CCCSCC(=O)NCCc1ccc(S(=O)(=O)N2CCN(C3CCCCC3)C2=N)cc1 | 0.1 | 550 |  | 
9 | CSCC(=O)NCCc1ccc(S(=O)(=O)N2CCN(C3CCCCC3)C2=N)cc1 | 0.081 | 190 |  | 
10 | C=CC(=O)NCCc1ccc(S(=O)(=O)N2CCN(C3CCCCC3)C2=N)cc1 | 0.042 | 210 |  | 
11 | CCSCC(=O)NCCc1ccc(S(=O)(=O)N2CCN(C3CCCCC3)C2=N)cc1 | 0.055 | 200 | 0.57 | 
12 | C/C=C\C(=O)NCCc1ccc(S(=O)(=O)N2CCN(C3CCCCC3)C2=N)cc1 | 0.0038 | 38 |  | 
13 | C=CCCC(=O)NCCc1ccc(S(=O)(=O)N2CCN(C3CCCCC3)C2=N)cc1 | 0.0069 | 15 | 0.36 | 
14 | CC(=O)NCCc1ccc(S(=O)(=O)N2CCN(C3CCCCC3)C2=N)cc1 | 0.038 | 240 |  | 
15 | CCOC(=O)NCCc1ccc(S(=O)(=O)N2CCN(C3CCCCC3)C2=N)cc1 | 0.035 | 170 |  | 
16 | CCCCOC(=O)NCCc1ccc(S(=O)(=O)N2CCN(C3CCCCC3)C2=N)cc1 | 0.079 | 890 | 0.89 | 
17 | N=C1N(C2CCCCC2)CCN1S(=O)(=O)c1ccc(CCNC(=O)CN)cc1 | 0.39 |  | 0.62 | 
18 | CC(C(=O)NCCc1ccc(S(=O)(=O)N2CCN(C3CCCCC3)C2=N)cc1)N(C)C (stereo unspecified) | 0.024 | 62 |  | 
19 | Cc1cc(C(=O)NCCc2ccc(S(=O)(=O)N3CCN(C4CCCCC4)C3=N)cc2)no1 | 0.022 | 130 | 0.14 | 
20 | CCCCCC/N=C(\S)NCCc1ccc(S(=O)(=O)N2CCN(C3CCCCC3)C2=N)cc1 | 0.3 |  |  | > 610
21 | N=C1N(C2CCCCC2)CCN1S(=O)(=O)c1ccc(CCNC(=O)c2ccc(Cl)c(Cl)c2)cc1 | 0.37 |  |  | > 760

Row | SMILES | ED20 [1] [mmol/kg] | ED50 [2] [µmol/kg] | ED20 [3] [mmol/kg] | ED50 [4] [µmol/kg]
22 | CSc1ccccc1C(=O)NCCc1ccc(S(=O)(=O)N2CCN(C3CCCCC3)C2=N)cc1 | 0.064 | 620 |  | 
23 | COc1ccc(C(=O)NCCc2ccc(S(=O)(=O)N3CCN(C4CCCCC4)C3=N)cc2)cc1OC | 0.066 | 780 |  | 
24 | Cc1ccccc1C(=O)NCCc1ccc(S(=O)(=O)N2CCN(C3CCCCC3)C2=N)cc1 | 0.022 |  |  | > 850
25 | COc1ccccc1C(=O)NCCc1ccc(S(=O)(=O)N2CCN(C3CCCCC3)C2=N)cc1 | 0.093 |  |  | > 830
26 | CCCOCC(=O)NCCc1ccc(S(=O)(=O)N2CCN(C3CCCCC3)C2=N)cc1 | 0.1 | 350 |  | 
27 | N=C1N(C2CCCCC2)CCN1S(=O)(=O)c1ccc(CCNC(=S)Nc2ccccc2)cc1 | 0.063 | 630 |  | 
28 | CC(C)CC(=O)NCCc1ccc(S(=O)(=O)N2CCN(C3CCCCC3)C2=N)cc1 | 0.046 | 150 |  | 
29 | COc1ccc(Cl)cc1C(=O)NCCc1ccc(S(=O)(=O)N2CCN(C3CCCCC3)C2=N)cc1 | 0.12 |  |  | > 770
30 | N=C1N(C2CCCCC2)CCN1S(=O)(=O)c1ccc(CCNC(=O)Oc2ccccc2)cc1 | 0.042 | > 850 |  | 
31 | N=C1N(C2CCCCC2)CCN1S(=O)(=O)c1ccc(CCNC(=O)CCN)cc1 | 0.065 | 370 | 0.76 | 
32 | N=C1N(C2CCCCC2)CCN1S(=O)(=O)c1ccc(CCNC(=O)CCC2CCC2)cc1 | 0.052 | 200 |  | 
33 | CCCCNC(=O)NCCc1ccc(S(=O)(=O)N2CCN(C3CCCCC3)C2=N)cc1 | 0.067 | 330 |  | 
34 | CCCCN(C)C(=O)NCCc1ccc(S(=O)(=O)N2CCN(C3CCCCC3)C2=N)cc1 | 0.054 | 320 |  | 
35 | C/C=C(/C)C(=O)NCCc1ccc(S(=O)(=O)N2CCN(C3CCCCC3)C2=N)cc1 | 0.0035 | 17 |  | 
36 | C/C=C/C(=O)NCCc1ccc(S(=O)(=O)N2CCN(C3CCCCC3)C2=N)cc1 | 0.0028 | 9.6 | 0.18 | 
37 | N=C1N(C2CCCCC2)CCN1S(=O)(=O)c1ccc(CCNC(=O)C2CC=CCC2)cc1 (stereo unspecified) | 0.0044 | 15 | 0.39 | 
38 | COc1ccc(C(=O)NCCc2ccc(S(=O)(=O)N3CCN(C4CCCCC4)C3=N)cc2)cc1 | 0.064 | 830 |  | 
39 | CCCCC(=O)NCCc1ccc(S(=O)(=O)N2CCN(C3CCCCC3)C2=N)cc1 | 0.035 | 120 |  | 
40 | N=C1N(C2CCCCC2)CCN1S(=O)(=O)c1ccc(CCNC(=S)NC2CCCC2)cc1 | 0.05 | 210 |  | 
41 | N=C1N(C2CCCCC2)CCN1S(=O)(=O)c1ccc(CCNC(=O)/C=C/c2ccccc2)cc1 | 0.11 |  |  | > 630
42 | CCCC/N=C(\S)NCCc1ccc(S(=O)(=O)N2CCN(C3CCCCC3)C2=N)cc1 | 0.015 | 210 |  | 

Row | SMILES | ED20 [1] [mmol/kg] | ED50 [2] [µmol/kg] | ED20 [3] [mmol/kg] | ED50 [4] [µmol/kg]
43 | N=C1N(C2CCCCC2)CCN1S(=O)(=O)c1ccc(CCNC(=O)Nc2ccccc2)cc1 | 0.85 |  |  | 
44 | CCC/C=C/C(=O)NCCc1ccc(S(=O)(=O)N2CCN(C3CCCCC3)C2=N)cc1 | 0.009 | 22 | 0.81 | 
45 | CC/N=C(\S)NCCc1ccc(S(=O)(=O)N2CCN(C3CCCCC3)C2=N)cc1 | 0.016 | 140 |  | 
46 | C/N=C(\S)NCCc1ccc(S(=O)(=O)N2CCN(C3CCCCC3)C2=N)cc1 | 0.031 | 240 |  | 
47 | CCC(CC)C(=O)NCCc1ccc(S(=O)(=O)N2CCN(C3CCCCC3)C2=N)cc1 | 0.098 |  |  | > 890
48 | CC1(C(=O)NCCc2ccc(S(=O)(=O)N3CCN(C4CCCCC4)C3=N)cc2)CC=CCC1 (stereo unspecified) | 0.053 | 170 |  | 
49 | N=C1N(C2CCCCC2)CCN1S(=O)(=O)c1ccc(CCNC(=O)c2ccco2)cc1 | 0.013 | 160 | 0.22 | 
50 | N=C1N(C2CCCCC2)CCN1S(=O)(=O)c1ccc(CCNC(=O)c2ccccc2Cl)cc1 | 0.023 | 230 |  | 
51 | N=C1N(C2CCCCC2)CCN1S(=O)(=O)c1ccc(CCNC(=O)c2cccs2)cc1 | 0.022 | 170 |  | 
52 | CC(N)C(=O)NCCc1ccc(S(=O)(=O)N2CCN(C3CCCCC3)C2=N)cc1 (stereo unspecified) | 0.059 | 160 | 0.46 | 
53 | CC1=CCC(C(=O)NCCc2ccc(S(=O)(=O)N3CCN(C4CCCCC4)C3=N)cc2)CC1 (stereo unspecified) | 0.11 | 910 |  | 
54 | CC(C)/C=C/C(=O)NCCc1ccc(S(=O)(=O)N2CCN(C3CCCCC3)C2=N)cc1 | 0.0096 | 34 |  | 
55 | C=C(C(=O)NCCc1ccc(S(=O)(=O)N2CCN(C3CCCCC3)C2=N)cc1)c1ccccc1 | 0.014 | 48 | 0.96 | 
56 | N=C1N(C2CCCCC2)CCN1S(=O)(=O)c1ccc(CCNC=O)cc1 | 0.053 | 260 |  | 
57 | N=C1N(C2CCCCC2)CCN1S(=O)(=O)c1ccc(CCNC(=O)CCNc2ccccc2)cc1 | 0.24 |  | 0.8 | 
58 | CC(Nc1ccccc1)C(=O)NCCc1ccc(S(=O)(=O)N2CCN(C3CCCCC3)C2=N)cc1 (stereo unspecified) | 0.06 | 200 | 0.4 | 
59 | N=C1N(C2CCCCC2)CCN1S(=O)(=O)c1ccc(CCNC(=O)C2CC2)cc1 | 0.034 | 150 |  | 
60 | N=C1N(C2CCCCC2)CCN1S(=O)(=O)c1ccc(CCNC(=O)CNc2ccccc2)cc1 | 0.064 | 320 | 0.4 | 
61 | CC[S+]([O-])CC(=O)NCCc1ccc(S(=O)(=O)N2CCN(C3CCCCC3)C2=N)cc1 (stereo unspecified) | 0.074 | 240 | 0.85 | 
